Test results from BindingDB's records for patent US10961236 (Astrazeneca, 2021).

Target: T1, Phosphatidylinositol 4,5-bisphosphate 3-kinase catalytic subunit gamma isoform [144-1102] (Homo sapiens, UniProt P48736)
T1 construct: 144-1102
Test: Enzymatic Activity Assay
Method: Routinely, inhibitors were pre-incubated with 3 μl of enzyme for 15 min prior to the addition of 2 μl substrate mixture for a further 60 min enzyme reaction. The phosphorylation was stopped with the addition of 3 μl ADP-Glo reagent (stop solution) followed by a 40 min incubation. Prior to detection 6 μl of ADP-Glo Kinase Detection Reagent was added and the plates were read in a micro plate reader using a Luminescence filter. All additions were followed by a short centrifugation step.

T1 sequence (P48736 144-1102): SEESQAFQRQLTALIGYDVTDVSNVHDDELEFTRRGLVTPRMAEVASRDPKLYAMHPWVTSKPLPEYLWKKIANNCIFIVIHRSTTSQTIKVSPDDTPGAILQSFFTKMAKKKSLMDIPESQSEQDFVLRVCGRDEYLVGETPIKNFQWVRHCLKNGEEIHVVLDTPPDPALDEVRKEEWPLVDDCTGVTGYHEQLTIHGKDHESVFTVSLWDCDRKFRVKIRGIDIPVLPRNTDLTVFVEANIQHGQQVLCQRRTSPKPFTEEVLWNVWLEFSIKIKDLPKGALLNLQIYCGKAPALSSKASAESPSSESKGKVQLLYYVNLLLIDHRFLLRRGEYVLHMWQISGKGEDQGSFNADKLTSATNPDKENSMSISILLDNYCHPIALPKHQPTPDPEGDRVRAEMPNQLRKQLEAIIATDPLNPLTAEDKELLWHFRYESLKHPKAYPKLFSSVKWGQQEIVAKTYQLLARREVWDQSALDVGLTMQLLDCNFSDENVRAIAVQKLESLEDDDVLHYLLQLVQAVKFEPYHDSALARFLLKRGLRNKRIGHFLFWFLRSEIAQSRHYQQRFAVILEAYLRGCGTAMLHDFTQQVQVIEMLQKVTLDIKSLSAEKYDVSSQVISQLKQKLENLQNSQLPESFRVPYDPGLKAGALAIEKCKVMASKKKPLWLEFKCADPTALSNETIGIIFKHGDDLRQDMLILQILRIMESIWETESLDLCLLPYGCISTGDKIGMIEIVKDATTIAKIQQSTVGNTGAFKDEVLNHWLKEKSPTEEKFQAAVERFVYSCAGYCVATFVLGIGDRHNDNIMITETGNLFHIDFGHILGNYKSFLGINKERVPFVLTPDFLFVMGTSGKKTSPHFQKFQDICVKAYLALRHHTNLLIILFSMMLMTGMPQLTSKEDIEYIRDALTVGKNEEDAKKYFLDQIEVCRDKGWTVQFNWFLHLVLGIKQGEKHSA

- IC50: 1 nM
Structure (SMILES): CC[C@H](C)N1Cc2cc(-c3sc(Nc4cccc(N5CCCOC5=O)n4)nc3C)cc(S(=O)(=O)NC)c2C1=O [US10961236, Example 61]
